Laboratory results: the supplement of paper PMC11208160

experiment: recombinant UMI read abundance after kanamycin selection (control-corrected) (log10(CPM+1)); higher = more efficient recombination; extreme values may be limits of the assay; sequences stand for … in AGTGCAGAGAAAATCGGCCAGTTTTCTCTGCCTGCAGTCCGCATGCCGTGGGACCCCTTGGGTTCTAACCTGTTGCCTAGATTTATGCAGCGGACTGCCTTTCTCCCAAAGTGATAAACCGG…AGGTTGGTTTCACT; site = the 11-nt donor
Method: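 Pooled E. coli donor-specificity screen for the IS621 bridge recombinase. Each library member carries a reprogrammed 11-nt donor and a full-length LE bridge RNA expressed in cis from the natural promoter, with a paired donor-binding loop (8-nt LDG + 4-nt RDG) and a target-binding loop fixed to T5. It is co-electroporated with a T5 target plasmid; recombinase is induced with 0.07 mM IPTG and recombinants are selected on kanamycin. UMIs are counted as CPM, averaged over two biological replicates and corrected by the unselected control. Molecule = full bridge RNA written as DNA, built from the T5 scaffold: LDG = donor specificity nt 1-8, RDG = reverse complement of nt 8-11.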
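Also: IS621 bridge recombinase in Escherichia coli cells against a fixed T5 target plasmid.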

Sequence	recombinant UMI read abundance (log10)
AAAAAGGCATGGACCGGTTTTCCCGGTAATCCGTATTTGCT (site AAAAAGGCTAG)	1.88
AAAAAGGCATGGACCGGTTTTCCCGGTAATCCGTATTTGCT (site ACAAAGGCTAG)	1.19
AAAAAGGCATGGACCGGTTTTCCCGGTAATCCGTATTTGCT (site AGAAAGGCTAG)	0.722
AAAAAGGCATGGACCGGTTTTCCCGGTAATCCGTATTTGCT (site ATAAAGGCTAG)	1.59
AAAACCACATGGACCGGTTTTCCCGGTAATCCGTATTTGCT (site AAAACCACTAG)	1.82
AAAATATCATGGACCGGTTTTCCCGGTAATCCGTATTTGCA (site AAAATATCTTG)	2.21
AAAATATCATGGACCGGTTTTCCCGGTAATCCGTATTTGCA (site ACAGTATCTTG)	1.88
AAACGCACATGGACCGGTTTTCCCGGTAATCCGTATTTGGG (site AAACGCACTCC)	0.0145
AAACGGGCATGGACCGGTTTTCCCGGTAATCCGTATTTGCG (site AAACGGGCTCG)	0.661
AAACTGTCATGGACCGGTTTTCCCGGTAATCCGTATTTGCC (site AAACTGTCTGG)	1.79
AAACTGTCATGGACCGGTTTTCCCGGTAATCCGTATTTGTT (site AAACTGTCTAA)	1.97
AAACTTGCATGGACCGGTTTTCCCGGTAATCCGTATTTGGA (site AAACTTGCTTC)	0.688
AAAGATCCATGGACCGGTTTTCCCGGTAATCCGTATTTGGC (site AAAGATCCTGC)	0
AAAGCCCCATGGACCGGTTTTCCCGGTAATCCGTATTTGAA (site AAAGCCCCTTT)	0.767
AAAGCCTCATGGACCGGTTTTCCCGGTAATCCGTATTTGAA (site AAAGCCTCTTT)	2.63
AAAGCTCCATGGACCGGTTTTCCCGGTAATCCGTATTTGTA (site AAAGCTCCTTA)	1.42
AAAGGCACATGGACCGGTTTTCCCGGTAATCCGTATTTGAA (site AAAGGCACTTT)	0.56
AAAGGGACATGGACCGGTTTTCCCGGTAATCCGTATTTGAG (site AAAGGGACTCT)	1.76
AAAGGGCCATGGACCGGTTTTCCCGGTAATCCGTATTTGAG (site AAAGGGCCTCT)	0.0224
AAAGTAGCATGGACCGGTTTTCCCGGTAATCCGTATTTGCT (site AAAGTAGCTAG)	1.94
AAAGTCACATGGACCGGTTTTCCCGGTAATCCGTATTTGGG (site AAAGTCACTCC)	0.0214
AAAGTCACATGGACCGGTTTTCCCGGTAATCCGTATTTGGG (site CAAGTCACTCC)	0.458
AAAGTCACATGGACCGGTTTTCCCGGTAATCCGTATTTGGG (site GAAGTCACTCC)	0.00503
AAAGTCACATGGACCGGTTTTCCCGGTAATCCGTATTTGGG (site TAAGTCACTCC)	0.158

Sequence	recombinant UMI read abundance (log10)
AAATACACATGGACCGGTTTTCCCGGTAATCCGTATTTGCT (site AAATACACTAG)	2.41
AAATATGCATGGACCGGTTTTCCCGGTAATCCGTATTTGGA (site AAATATGCTTC)	1.25
AAATATGCATGGACCGGTTTTCCCGGTAATCCGTATTTGGA (site AACTATGCTTC)	1
AAATATGCATGGACCGGTTTTCCCGGTAATCCGTATTTGGA (site AAGTATGCTTC)	1.23
AAATATGCATGGACCGGTTTTCCCGGTAATCCGTATTTGGA (site AATTATGCTTC)	0.905
AAATCGACATGGACCGGTTTTCCCGGTAATCCGTATTTGGT (site AAATCGACTAC)	0.133
AAATCGTCATGGACCGGTTTTCCCGGTAATCCGTATTTGTC (site AAATCGTCTGA)	1.91
AAATGAGCATGGACCGGTTTTCCCGGTAATCCGTATTTGGG (site AAATGAGCTCC)	0.252
AAATGAGCATGGACCGGTTTTCCCGGTAATCCGTATTTGGG (site CAATGAGCTCC)	0.247
AAATGAGCATGGACCGGTTTTCCCGGTAATCCGTATTTGGG (site GAATGAGCTCC)	0.00588
AAATGAGCATGGACCGGTTTTCCCGGTAATCCGTATTTGGG (site TAATGAGCTCC)	0.46
AAATGATCATGGACCGGTTTTCCCGGTAATCCGTATTTGAG (site AAATGATCTCT)	2.71
AAATGCACATGGACCGGTTTTCCCGGTAATCCGTATTTGGG (site AAATGCACTCC)	0.0107
AAATGCTCATGGACCGGTTTTCCCGGTAATCCGTATTTGAA (site AAATGCTCTTT)	1.66
AAATGCTCATGGACCGGTTTTCCCGGTAATCCGTATTTGAA (site CAATGCTCTTT)	1.65
AAATGCTCATGGACCGGTTTTCCCGGTAATCCGTATTTGAA (site GAATGCTCTTT)	0.961
AAATGCTCATGGACCGGTTTTCCCGGTAATCCGTATTTGAA (site TAATGCTCTTT)	1.17
AAATGGCCATGGACCGGTTTTCCCGGTAATCCGTATTTGCA (site AAATGGCCTTG)	0.00935
AAATGGCCATGGACCGGTTTTCCCGGTAATCCGTATTTGCA (site CAATGGCCTTG)	0
AAATGGCCATGGACCGGTTTTCCCGGTAATCCGTATTTGCA (site GAATGGCCTTG)	0
AAATGGCCATGGACCGGTTTTCCCGGTAATCCGTATTTGCA (site TAATGGCCTTG)	0
AAATTTGCATGGACCGGTTTTCCCGGTAATCCGTATTTGGC (site AAATTTGCTGC)	0
AACAAACCATGGACCGGTTTTCCCGGTAATCCGTATTTGGT (site AACAAACCTAC)	0
AACAAACCATGGACCGGTTTTCCCGGTAATCCGTATTTGGT (site CACAAACCTAC)	0

Sequence	recombinant UMI read abundance (log10)
AACAAACCATGGACCGGTTTTCCCGGTAATCCGTATTTGGT (site GACAAACCTAC)	0
AACAAACCATGGACCGGTTTTCCCGGTAATCCGTATTTGGT (site TACAAACCTAC)	0.337
AACACCCCATGGACCGGTTTTCCCGGTAATCCGTATTTGAG (site AACACCCCTCT)	0.0941
AACACTGCATGGACCGGTTTTCCCGGTAATCCGTATTTGAG (site AACACTGCTCT)	1.31
AACATACCATGGACCGGTTTTCCCGGTAATCCGTATTTGGA (site AACATACCTTC)	0.0114
AACCACTCATGGACCGGTTTTCCCGGTAATCCGTATTTGCC (site AACCACTCTGG)	3.01
AACCATCCATGGACCGGTTTTCCCGGTAATCCGTATTTGCC (site AACCATCCTGG)	0.00555
AACCCGGCATGGACCGGTTTTCCCGGTAATCCGTATTTGGA (site AACCCGGCTTC)	0.181
AACCCTCCATGGACCGGTTTTCCCGGTAATCCGTATTTGAT (site AACCATCCTAT)	0.00728
AACCCTCCATGGACCGGTTTTCCCGGTAATCCGTATTTGAT (site AACCCTCCTAT)	0.115
AACCCTCCATGGACCGGTTTTCCCGGTAATCCGTATTTGAT (site AACCGTCCTAT)	0.015
AACCCTCCATGGACCGGTTTTCCCGGTAATCCGTATTTGAT (site AACCTTCCTAT)	0.011
AACCGCCCATGGACCGGTTTTCCCGGTAATCCGTATTTGAA (site AACCGCCCTTT)	0.156
AACCGTCCATGGACCGGTTTTCCCGGTAATCCGTATTTGTT (site AACCGTCCTAA)	0.00892
AACCGTCCATGGACCGGTTTTCCCGGTAATCCGTATTTGTT (site AACCGTCCTAC)	0.0168
AACCGTCCATGGACCGGTTTTCCCGGTAATCCGTATTTGTT (site AACCGTCCTAG)	0.794
AACCGTCCATGGACCGGTTTTCCCGGTAATCCGTATTTGTT (site AACCGTCCTAT)	0.0199
AACCTCTCATGGACCGGTTTTCCCGGTAATCCGTATTTGCC (site AACCTCTCTGG)	2.62
AACGAGCCATGGACCGGTTTTCCCGGTAATCCGTATTTGGC (site AACGAGCCTGC)	0
AACGATCCATGGACCGGTTTTCCCGGTAATCCGTATTTGGC (site AACGATCCTGC)	1.07
AACGGCCCATGGACCGGTTTTCCCGGTAATCCGTATTTGTT (site AACGGCCCTAA)	0
AACGGCCCATGGACCGGTTTTCCCGGTAATCCGTATTTGTT (site CACGGCCCTAA)	0.071
AACGGCCCATGGACCGGTTTTCCCGGTAATCCGTATTTGTT (site GACGGCCCTAA)	0.0173
AACGGCCCATGGACCGGTTTTCCCGGTAATCCGTATTTGTT (site TACGGCCCTAA)	0.00583
